“And” between values parts separate entries of the source, which are not always exact repeats. Equal entries are not always repeated.
Experiment: molar heat capacity at constant pressure
Details: 101.33 kPa, Crystal, Small sample (50 mg) DSC

CCCCCC[n+]1cccc2ccccc21.O=S(=O)([N-]S(=O)(=O)C(F)(F)F)C(F)(F)F [1-hexylquinolinium bis(trifluoromethylsulfonyl)amide]
Details	molar heat capacity at constant pressure
203.04 K	300.57 J/K/mol [middle of 4 runs]
203.05 K	300.39 J/K/mol and 306.52 J/K/mol
203.06 K	305.88 J/K/mol
203.08 K	302.69 J/K/mol
203.13 K	298.95 J/K/mol
203.21 K	298.13 J/K/mol
203.35 K	295.39 J/K/mol
203.56 K	285.68 J/K/mol
203.85 K	280.12 J/K/mol
204.22 K	282.02 J/K/mol
204.66 K	288.24 J/K/mol
205.16 K	293.91 J/K/mol
205.7 K	295.33 J/K/mol
206.26 K	301.86 J/K/mol
206.82 K	315.29 J/K/mol
207.36 K	320.59 J/K/mol
207.9 K	319.02 J/K/mol
208.43 K	317.61 J/K/mol
208.95 K	317.22 J/K/mol
209.48 K	316.74 J/K/mol
210.02 K	313.5 J/K/mol
210.58 K	310.53 J/K/mol
211.15 K	311.06 J/K/mol
211.74 K	311.71 J/K/mol
212.32 K	311.41 J/K/mol
212.92 K	311.93 J/K/mol
213.51 K	313.38 J/K/mol
214.11 K	314.64 J/K/mol
214.7 K	315.47 J/K/mol
215.3 K	316.35 J/K/mol
215.9 K	317.1 J/K/mol
216.5 K	317.71 J/K/mol
217.1 K	318.5 J/K/mol
217.7 K	319.34 J/K/mol
218.3 K	320.14 J/K/mol
218.9 K	320.94 J/K/mol
219.5 K	321.78 J/K/mol
220.1 K	322.65 J/K/mol
220.7 K	323.47 J/K/mol
221.3 K	324.32 J/K/mol
221.9 K	325.15 J/K/mol
222.5 K	325.93 J/K/mol
223.1 K	326.77 J/K/mol
223.7 K	327.6 J/K/mol
224.3 K	328.43 J/K/mol
224.9 K	329.26 J/K/mol
225.5 K	330.08 J/K/mol
226.1 K	330.9 J/K/mol
226.7 K	331.78 J/K/mol
227.3 K	332.65 J/K/mol
227.9 K	333.52 J/K/mol
228.5 K	334.39 J/K/mol
229.1 K	335.29 J/K/mol
229.7 K	336.19 J/K/mol
230.3 K	337.06 J/K/mol
230.9 K	337.92 J/K/mol
231.5 K	338.75 J/K/mol
232.1 K	339.57 J/K/mol
232.7 K	340.41 J/K/mol
233.3 K	341.25 J/K/mol
233.9 K	342.13 J/K/mol
234.5 K	343.04 J/K/mol
235.11 K	343.9 J/K/mol
235.71 K	344.83 J/K/mol
236.31 K	345.73 J/K/mol
236.91 K	346.55 J/K/mol
237.51 K	347.39 J/K/mol
238.11 K	348.22 J/K/mol
238.71 K	348.99 J/K/mol
239.31 K	349.79 J/K/mol
239.91 K	350.56 J/K/mol
240.51 K	351.35 J/K/mol
241.11 K	352.21 J/K/mol
241.71 K	353.05 J/K/mol
242.31 K	353.86 J/K/mol
242.91 K	354.74 J/K/mol
243.51 K	355.63 J/K/mol
244.11 K	356.56 J/K/mol
244.71 K	357.47 J/K/mol
245.31 K	358.35 J/K/mol
245.91 K	359.26 J/K/mol
246.51 K	360.13 J/K/mol
247.11 K	360.95 J/K/mol
247.71 K	361.75 J/K/mol
248.31 K	362.5 J/K/mol
248.91 K	363.25 J/K/mol
249.51 K	363.98 J/K/mol
250.11 K	364.75 J/K/mol
250.71 K	365.53 J/K/mol
251.31 K	366.32 J/K/mol
251.91 K	367.13 J/K/mol
252.51 K	367.96 J/K/mol
253.11 K	368.8 J/K/mol
253.71 K	369.64 J/K/mol
254.31 K	370.52 J/K/mol
254.91 K	371.43 J/K/mol
255.51 K	372.34 J/K/mol
256.11 K	373.31 J/K/mol
256.71 K	374.34 J/K/mol
257.31 K	375.35 J/K/mol
257.91 K	376.38 J/K/mol
258.51 K	377.4 J/K/mol
259.11 K	378.39 J/K/mol
259.71 K	379.39 J/K/mol
260.31 K	380.35 J/K/mol
260.91 K	381.29 J/K/mol
261.51 K	382.27 J/K/mol
262.11 K	383.27 J/K/mol
262.71 K	384.28 J/K/mol
263.31 K	385.29 J/K/mol
263.91 K	386.31 J/K/mol
264.51 K	387.3 J/K/mol
265.11 K	388.31 J/K/mol
265.71 K	389.33 J/K/mol
266.32 K	390.32 J/K/mol
266.92 K	391.31 J/K/mol
267.52 K	392.31 J/K/mol
268.12 K	393.27 J/K/mol
268.72 K	394.25 J/K/mol
269.32 K	395.21 J/K/mol
269.92 K	396.11 J/K/mol
270.52 K	397.07 J/K/mol
271.12 K	398.06 J/K/mol
271.72 K	399.04 J/K/mol
272.32 K	400.09 J/K/mol
272.92 K	401.2 J/K/mol
273.52 K	402.31 J/K/mol
274.12 K	403.5 J/K/mol
274.72 K	404.68 J/K/mol
275.32 K	405.86 J/K/mol
275.92 K	407.08 J/K/mol
276.52 K	408.31 J/K/mol
277.12 K	409.49 J/K/mol
277.72 K	410.7 J/K/mol
278.32 K	411.89 J/K/mol
278.92 K	413.04 J/K/mol
279.52 K	414.18 J/K/mol
280.12 K	415.29 J/K/mol
280.72 K	416.38 J/K/mol
281.32 K	417.47 J/K/mol
281.92 K	418.55 J/K/mol
282.52 K	419.65 J/K/mol
